Experimental data from PMC12730265, “Combinatorial Antimicrobial Effects of Imidazolium-Based Ionic Liquids and Antifungals on Model Fungal Organisms” (Biomolecules, 2025).
Like-named read-outs stand apart in the source and are kept apart here.

Key:
Assay type in all cases: cell-based
S. boulardii = experiment: MIC50 by microbroth dilution; details: Saccharomyces cerevisiae
Protocol: (§1) A single colony was picked from each streak to prepare overnight in 5 mL fresh YPD broth and placed into a tilted rotating incubator set at 30 °C and 40 rpm overnight. After ~16–20 h, a fresh dilution in media (1:200) was made and used for the experiment. […] Finally, diluted culture was added to each well of a sterile 96-well plate containing serially diluted aliquots of each RTIL to a total volume of 100 µL. The plate was incubated at 30 °C overnight with shaking for 24 and 48 h. At both timepoints, the yeast was manually resuspended in the plate by pipetting and we measured the OD600 using a Spectramax M5 multimode plate reader (Molecular Devices, San Jose, CA, USA).
(§2) The four species of yeast tested included three common lab strains of non-pathogenic yeast strains, S. boulardii, S. cerevisiae, and S. pombe, and one common human pathogen, C. albicans.

S. pombe = experiment: MIC50 by microbroth dilution; details: Schizosaccharomyces pombe
Protocol: as §1, §2

C. albicans [1] = experiment: MIC50 by microbroth dilution; details: Candida albicans, 48 h
Protocol: as §1, §2

S. cerevisiae [2] = experiment: MIC50 by microbroth dilution; details: Saccharomyces cerevisiae
Protocol: as §1, §2

S. cerevisiae [3] = experiment: Kirby–Bauer disk diffusion assay on IL-containing YPD plates; details: 100 = no growth on plate
Protocol: (§3) Assessment of fungal growth on YPD plates with AFs + ILs served as an indicator for the combined efficacy of treatment of ILs and AFs. YPD agar plates were made with addition of increasing concentrations of [HMIM]Cl at 0, 2.5, 6.25, and 25 mM or [OMIM]Cl at 0, 0.25, 0.625, and 2.5 mM. Plates solidified and dried on bench for 24 h before use. IN total, 400 μL of S. cerevisiae or C. albicans liquid culture at mid-log phase OD600 0.5 was spread using sterile glass beads to achieve even distribution. Following addition of culture, the plates were allowed to dry for 30 min before the addition of antifungal disks. Antifungal-infused disks were prepared using the stock solutions of solubilized antibiotics; 15 μL of each of the 4 azole antifungals at stock concentrations was pipetted onto a sterile 6 mm cellulose disk (BD). […] After plate drying was complete, sterile forceps were used to transfer the disks to the media, and the plate was grown upright in an incubator overnight at 30 °C. The following day, photographs were taken of the plates to visualize the zone of inhibition (ZOI) created by the combined treatment. Adobe Illustrator 2023 CC was used to perform digital measurements of ZOI diameters.
(§4) To assess the potential for combinatorial effects of ILs and AFs in yeast, Kirby–Bauer disk diffusion assays were performed for C. albicans and S. cerevisiae for [HMIM]Cl and [OMIM]Cl with all four AFs. […] The addition of 6 mm cellulose disks infused with equal volumes of solubilized AFs to the plates occurred after plating of C. albicans or S. cerevisiae, allowing for growth for 48 h at 23 °C, at which point the plates were evaluated for the establishment of zones of inhibition (ZOI). Digital pictures were acquired of all plates, and measurements of ZOI diameter were performed digitally as described in the Methods. […] With progressively increasing amounts of both [HMIM]Cl and [OMIM]Cl, ZOIs increased for all Afs, including Fluconazole and Itraconazole, which appear to be ineffective without IL in the Kirby–Bauer disk assay. Experiments were performed in triplicate and ZOIs were measured for all plates.
Similar experiments testing the combinatorial effects of [HMIM]Cl or [OMIM]Cl were performed on S. cerevisiae using Kirby–Bauer disk assays and quantified for changes in ZOI (Appendix Figure A1). ZOI measurements (mm) from both C. albicans and S. cerevisiae were compiled, and the averages are shown numerically as well as with shading and plotted in Figure 3. […] Finally, at intermediate concentrations of both [HMIM]Cl and [OMIM]Cl, a combinatorial effect of IL + AF was evident for all four AFs in S. cerevisiae, similar to observations in C. albicans.

C. albicans [4] = experiment: as above; details: for inhibition of C. albicans growth around disk: absence of added IL
Protocol: as §3, §4

[5] = 50% growth after 48 h in YPD media, OD600, read-out: MIC50

MIC50 (S. boulardii; [5]) [µg/mL]	MIC50 (S. pombe; [5]) [µg/mL]	MIC50 (C. albicans [1]; [5]) [µg/mL]	MIC50 (S. cerevisiae [2]; [5]) [µg/mL]	Compound	Zone of inhibition (ZOI) diameter (S. cerevisiae [3]; [HMIM]Cl 0 mM in plate) [mm]	Zone of inhibition (ZOI) diameter (S. cerevisiae [3]; [HMIM]Cl 2.5 mM in plate) [mm]	Zone of inhibition (ZOI) diameter (S. cerevisiae [3]; [HMIM]Cl 6.25 mM in plate) [mm]	Zone of inhibition (ZOI) diameter (S. cerevisiae [3]; [HMIM]Cl 25 mM in plate) [mm]	Zone of inhibition (ZOI) diameter (S. cerevisiae [3]; [OMIM]Cl 0 M in plate) [mm]	Zone of inhibition (ZOI) diameter (S. cerevisiae [3]; [OMIM]Cl 0.25 mM in plate) [mm]	Zone of inhibition (ZOI) diameter (S. cerevisiae [3]; [OMIM]Cl 0.625 mM in plate) [mm]	Zone of inhibition (ZOI) diameter (S. cerevisiae [3]; [OMIM]Cl 2.5 mM in plate) [mm]	Zone of inhibition (ZOI) diameter (C. albicans [4]; [HMIM]Cl 0 mM in plate) [mm]	Zone of inhibition (ZOI) diameter (C. albicans [4]; [HMIM]Cl 2.5 mM in plate) [mm]	Zone of inhibition (ZOI) diameter (C. albicans [4]; [HMIM]Cl 6.25 mM in plate) [mm]	Zone of inhibition (ZOI) diameter (C. albicans [4]; [HMIM]Cl 25 mM in plate) [mm]	Zone of inhibition (ZOI) diameter (C. albicans [4]; [OMIM]Cl 0 M in plate) [mm]	Zone of inhibition (ZOI) diameter (C. albicans [4]; [OMIM]Cl 0.25 mM in plate) [mm]	Zone of inhibition (ZOI) diameter (C. albicans [4]; [OMIM]Cl 0.625 mM in plate) [mm]	Zone of inhibition (ZOI) diameter (C. albicans [4]; [OMIM]Cl 2.5 mM in plate) [mm]	also measured
4	4	8	4	OC(Cn1cncn1)(Cn1cncn1)c1ccc(F)cc1F [Fluconazole]	34	36	43.33	100	34	37.33	69	100	0	0	31.33	47.33	0	0	29.33	70.33	inhibition of C. albicans growth around disk (C. albicans [4]): no inhibition
0.5	0.5	1	0.5	CCC(C)n1ncn(-c2ccc(N3CCN(c4ccc(OCC5COC(Cn6cncn6)(c6ccc(Cl)cc6Cl)O5)cc4)CC3)cc2)c1=O (stereo not shown) [Itraconazole]	8	9.33	14	100	8	9	21.67	100	0	0	12.67	16	0	0	16.33	26.33	inhibition of C. albicans growth around disk (C. albicans [4]): no inhibition
0.5	0.5	1	0.5	CC(=O)N1CCN(c2ccc(OCC3COC(Cn4ccnc4)(c4ccc(Cl)cc4Cl)O3)cc2)CC1 (stereo not shown) [Ketoconazole]	25	27.33	63	100	25	29.67	57.33	100	13.67	17	29	47.67	13.67	19.33	28	57.33	inhibition of C. albicans growth around disk (C. albicans [4]): minimal inhibition
–	–	–	–	CCn1cc[n+](C)c1 [[EMIM]Cl, 1-ethyl-3-methylimidazolium chloride]	–	–	–	–	–	–	–	–	–	–	–	–	–	–	–	–	MIC50 (S. boulardii; 48 h): 25 mM; MIC50 (S. pombe; 48 h): 50 mM; MIC50 (C. albicans [1]): > 100 mM; MIC50 (S. cerevisiae [2]; 48 h): 50 mM
